Assays:
[1] = target: Glycogen synthase kinase-3 beta (Homo sapiens) (UniProt P49841); assay: Binding affinity to full length wild type human GSK3beta (M1 to T433 residues) expressed in mammalian expression system assessed as fraction of unbound kinase to substrate at 0.1 uM after 1 hr by KinomeScan assay
[2] = target: Tyrosine-protein kinase ABL1 (Homo sapiens) (UniProt P00519); assay: Binding affinity to human wild type ABL1 (229 to 512 residues) expressed in mammalian expression system assessed as fraction of unbound kinase to substrate at 0.1 uM after 1 hr by KinomeScan assay
Chain of Tyrosine-protein kinase ABL1 (Homo sapiens) (P00519 whole entry, the tested form may be a part): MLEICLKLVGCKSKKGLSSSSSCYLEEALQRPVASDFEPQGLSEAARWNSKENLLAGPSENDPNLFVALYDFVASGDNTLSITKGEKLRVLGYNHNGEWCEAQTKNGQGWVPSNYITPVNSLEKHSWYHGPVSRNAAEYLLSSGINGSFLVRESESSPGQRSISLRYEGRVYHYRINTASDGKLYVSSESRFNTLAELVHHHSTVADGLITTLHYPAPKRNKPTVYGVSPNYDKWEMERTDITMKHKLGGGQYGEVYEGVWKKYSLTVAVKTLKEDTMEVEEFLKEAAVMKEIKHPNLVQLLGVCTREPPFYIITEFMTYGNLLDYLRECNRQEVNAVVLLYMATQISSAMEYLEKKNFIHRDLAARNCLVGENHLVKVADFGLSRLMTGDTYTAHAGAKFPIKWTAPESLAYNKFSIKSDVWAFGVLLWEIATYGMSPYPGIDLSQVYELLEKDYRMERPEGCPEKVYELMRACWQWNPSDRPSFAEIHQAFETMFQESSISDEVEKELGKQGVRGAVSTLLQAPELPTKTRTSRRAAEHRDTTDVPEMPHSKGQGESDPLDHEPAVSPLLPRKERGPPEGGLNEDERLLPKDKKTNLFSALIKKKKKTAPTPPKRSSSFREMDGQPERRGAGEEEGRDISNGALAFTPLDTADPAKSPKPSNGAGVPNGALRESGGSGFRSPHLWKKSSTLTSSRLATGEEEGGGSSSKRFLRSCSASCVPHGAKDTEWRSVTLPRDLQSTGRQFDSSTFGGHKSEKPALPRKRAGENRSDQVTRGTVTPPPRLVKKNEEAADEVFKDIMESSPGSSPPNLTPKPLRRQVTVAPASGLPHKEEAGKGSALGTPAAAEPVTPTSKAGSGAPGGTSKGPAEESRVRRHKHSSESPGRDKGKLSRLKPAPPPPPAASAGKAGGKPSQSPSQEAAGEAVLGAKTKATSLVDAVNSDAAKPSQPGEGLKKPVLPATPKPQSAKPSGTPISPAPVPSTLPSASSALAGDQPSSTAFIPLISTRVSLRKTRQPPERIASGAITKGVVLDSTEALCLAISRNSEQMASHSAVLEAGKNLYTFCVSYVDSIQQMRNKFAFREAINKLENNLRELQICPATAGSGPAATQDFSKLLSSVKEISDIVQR

[3] = target: Epidermal growth factor receptor (Homo sapiens) (UniProt P00533); assay: Binding affinity to partial length wild type human EGFR (R669 to V1011 residues) expressed in bacterial expression system assessed as fraction of unbound kinase to substrate at 1 uM after 1 hr by KinomeScan assay
Chain of Epidermal growth factor receptor (Homo sapiens) (P00533 whole entry, the tested form may be a part): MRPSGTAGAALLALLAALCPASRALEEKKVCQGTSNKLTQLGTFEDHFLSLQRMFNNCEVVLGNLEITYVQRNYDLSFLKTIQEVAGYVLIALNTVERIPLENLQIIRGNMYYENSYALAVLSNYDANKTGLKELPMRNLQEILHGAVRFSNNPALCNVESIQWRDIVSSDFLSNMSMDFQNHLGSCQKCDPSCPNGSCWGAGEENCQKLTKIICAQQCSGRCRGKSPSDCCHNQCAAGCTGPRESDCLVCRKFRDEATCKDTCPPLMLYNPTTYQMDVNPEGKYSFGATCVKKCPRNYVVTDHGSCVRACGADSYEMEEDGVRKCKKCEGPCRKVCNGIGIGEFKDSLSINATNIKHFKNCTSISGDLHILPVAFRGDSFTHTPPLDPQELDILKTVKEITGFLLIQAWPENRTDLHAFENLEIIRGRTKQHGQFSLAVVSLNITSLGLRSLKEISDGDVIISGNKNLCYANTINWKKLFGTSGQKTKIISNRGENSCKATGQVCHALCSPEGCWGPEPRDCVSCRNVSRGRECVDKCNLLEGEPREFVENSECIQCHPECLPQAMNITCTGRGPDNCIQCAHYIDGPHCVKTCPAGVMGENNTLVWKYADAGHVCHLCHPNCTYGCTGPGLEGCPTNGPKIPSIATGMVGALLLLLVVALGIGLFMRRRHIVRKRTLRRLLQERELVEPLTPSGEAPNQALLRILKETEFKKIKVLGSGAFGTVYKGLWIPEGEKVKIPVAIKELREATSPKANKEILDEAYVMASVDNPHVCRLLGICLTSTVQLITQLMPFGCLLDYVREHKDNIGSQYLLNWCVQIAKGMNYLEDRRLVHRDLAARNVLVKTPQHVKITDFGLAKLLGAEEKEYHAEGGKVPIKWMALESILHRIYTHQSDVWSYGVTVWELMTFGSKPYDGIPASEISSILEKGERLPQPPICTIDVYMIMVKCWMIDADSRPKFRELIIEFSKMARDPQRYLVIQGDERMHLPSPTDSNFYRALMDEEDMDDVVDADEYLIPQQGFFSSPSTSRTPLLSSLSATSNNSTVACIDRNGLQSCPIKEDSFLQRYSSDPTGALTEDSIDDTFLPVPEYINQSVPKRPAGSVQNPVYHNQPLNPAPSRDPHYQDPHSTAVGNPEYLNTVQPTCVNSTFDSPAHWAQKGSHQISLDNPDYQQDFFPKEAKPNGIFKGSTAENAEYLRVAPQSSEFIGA

[4] = target: Fibroblast growth factor receptor 1 (Homo sapiens) (UniProt P11362); assay: Binding affinity to wild-type human partial length FGFR1 (P357 to V669 residues) expressed in bacterial expression system assessed as fraction of unbound kinase to substrate at 1 uM after 1 hr by KinomeScan assay
Chain of Fibroblast growth factor receptor 1 (Homo sapiens) (P11362 22-822 limits assumed): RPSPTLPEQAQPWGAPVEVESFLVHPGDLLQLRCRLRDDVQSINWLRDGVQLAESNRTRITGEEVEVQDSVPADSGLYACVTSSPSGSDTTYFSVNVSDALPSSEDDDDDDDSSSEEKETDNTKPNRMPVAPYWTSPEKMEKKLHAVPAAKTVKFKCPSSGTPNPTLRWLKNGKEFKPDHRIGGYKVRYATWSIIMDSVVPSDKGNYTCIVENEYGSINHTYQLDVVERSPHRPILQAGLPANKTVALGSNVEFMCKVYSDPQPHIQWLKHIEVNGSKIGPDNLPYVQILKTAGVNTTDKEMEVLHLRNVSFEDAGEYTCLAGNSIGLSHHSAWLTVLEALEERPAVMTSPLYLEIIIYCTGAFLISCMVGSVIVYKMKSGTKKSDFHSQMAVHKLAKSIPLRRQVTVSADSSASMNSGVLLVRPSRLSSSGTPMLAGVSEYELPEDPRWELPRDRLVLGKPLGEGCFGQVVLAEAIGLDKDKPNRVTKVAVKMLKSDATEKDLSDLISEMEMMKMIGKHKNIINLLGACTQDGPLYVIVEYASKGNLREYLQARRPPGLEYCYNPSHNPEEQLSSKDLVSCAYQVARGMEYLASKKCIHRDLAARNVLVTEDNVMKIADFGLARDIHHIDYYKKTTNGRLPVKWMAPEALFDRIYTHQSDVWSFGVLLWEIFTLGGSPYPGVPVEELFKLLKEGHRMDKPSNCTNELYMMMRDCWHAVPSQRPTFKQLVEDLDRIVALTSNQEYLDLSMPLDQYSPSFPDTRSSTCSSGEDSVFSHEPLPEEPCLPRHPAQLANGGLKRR

[5] = Solubility of the compound in 0.2% DMSO; format: physicochemical
[6] = target: Cyclin-dependent kinase 2 (Homo sapiens) (UniProt P24941); assay: Binding affinity to wild-type human full length CDK2 (M1 to L298 residues) expressed in bacterial expression system assessed as fraction of unbound kinase to substrate at 0.1 uM after 1 hr by KinomeScan assay
[7] = target: T1, Aurora kinase A (Homo sapiens) (UniProt O14965); assay: Binding affinity to wild-type human partial length AURKA (E122 to K401 residues) expressed in mammalian expression system assessed as fraction of unbound kinase to substrate at 1 uM after 1 hr by KinomeScan assay
T1 sequence (whole entry): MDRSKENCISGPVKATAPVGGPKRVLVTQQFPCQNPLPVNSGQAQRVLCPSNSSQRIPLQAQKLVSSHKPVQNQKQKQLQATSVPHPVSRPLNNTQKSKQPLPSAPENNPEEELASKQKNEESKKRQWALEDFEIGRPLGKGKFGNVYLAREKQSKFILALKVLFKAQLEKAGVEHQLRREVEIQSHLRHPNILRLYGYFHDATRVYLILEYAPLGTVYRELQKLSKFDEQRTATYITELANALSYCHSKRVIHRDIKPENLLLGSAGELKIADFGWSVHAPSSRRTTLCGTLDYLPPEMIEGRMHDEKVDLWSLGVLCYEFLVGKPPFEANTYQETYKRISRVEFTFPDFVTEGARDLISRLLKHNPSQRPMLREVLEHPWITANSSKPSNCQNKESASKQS

[8] = target: Hepatocyte growth factor receptor (Homo sapiens) (UniProt P08581); assay: Binding affinity to human MET (D1010 to S1367 residues) expressed in bacterial expression system assessed as fraction of unbound kinase to substrate at 10 uM after 1 hr by KinomeScan assay
Chain of Hepatocyte growth factor receptor (Homo sapiens) (P08581 whole entry, the tested form may be a part): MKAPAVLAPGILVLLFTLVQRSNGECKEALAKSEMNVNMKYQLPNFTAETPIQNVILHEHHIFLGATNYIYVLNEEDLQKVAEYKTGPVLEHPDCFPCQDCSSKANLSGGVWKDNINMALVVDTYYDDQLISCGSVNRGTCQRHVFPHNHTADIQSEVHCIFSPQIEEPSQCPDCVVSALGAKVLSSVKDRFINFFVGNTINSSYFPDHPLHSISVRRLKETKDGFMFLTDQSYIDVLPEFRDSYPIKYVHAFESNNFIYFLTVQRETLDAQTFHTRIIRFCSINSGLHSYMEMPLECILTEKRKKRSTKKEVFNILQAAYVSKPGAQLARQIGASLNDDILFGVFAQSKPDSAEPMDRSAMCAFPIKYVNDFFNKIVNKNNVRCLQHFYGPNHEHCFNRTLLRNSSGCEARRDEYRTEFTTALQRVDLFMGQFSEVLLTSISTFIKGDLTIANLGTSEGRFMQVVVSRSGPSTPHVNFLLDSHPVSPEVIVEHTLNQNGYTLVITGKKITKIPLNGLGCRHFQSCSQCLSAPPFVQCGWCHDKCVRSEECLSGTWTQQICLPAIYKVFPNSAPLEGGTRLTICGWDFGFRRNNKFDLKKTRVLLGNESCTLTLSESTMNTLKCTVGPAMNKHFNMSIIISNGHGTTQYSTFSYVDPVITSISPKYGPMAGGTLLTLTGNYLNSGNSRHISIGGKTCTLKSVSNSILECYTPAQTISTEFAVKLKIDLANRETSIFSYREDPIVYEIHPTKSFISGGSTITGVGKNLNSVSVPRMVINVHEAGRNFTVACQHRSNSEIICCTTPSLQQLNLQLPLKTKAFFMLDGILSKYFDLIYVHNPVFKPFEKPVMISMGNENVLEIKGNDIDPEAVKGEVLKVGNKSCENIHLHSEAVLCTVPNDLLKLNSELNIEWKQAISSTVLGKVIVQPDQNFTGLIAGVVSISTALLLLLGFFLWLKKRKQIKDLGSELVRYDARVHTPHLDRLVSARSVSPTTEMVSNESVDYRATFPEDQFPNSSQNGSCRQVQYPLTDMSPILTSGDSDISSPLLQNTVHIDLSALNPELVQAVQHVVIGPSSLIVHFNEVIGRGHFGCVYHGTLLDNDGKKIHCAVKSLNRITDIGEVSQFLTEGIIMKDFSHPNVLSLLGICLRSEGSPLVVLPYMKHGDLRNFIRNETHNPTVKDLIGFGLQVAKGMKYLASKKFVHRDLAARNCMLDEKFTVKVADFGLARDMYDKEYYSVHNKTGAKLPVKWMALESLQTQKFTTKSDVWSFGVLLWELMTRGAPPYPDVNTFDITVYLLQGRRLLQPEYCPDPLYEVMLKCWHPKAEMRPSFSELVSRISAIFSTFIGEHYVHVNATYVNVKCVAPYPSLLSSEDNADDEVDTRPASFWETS

Homo sapiens [9] = organism: Homo sapiens; assay: Selectivity ratio of IC50 for recombinant GST-tagged human Tyro3 (451 to 890 residues) cytoplasmic domain to IC50 for recombinant His-tagged human Axl (473 to end residues) cytoplasmic domain
Homo sapiens [10] = organism: Homo sapiens; assay: Selectivity ratio of IC50 for recombinant GST-tagged human Mer (578 to 872 residues) cytoplasmic domain to IC50 for recombinant His-tagged human Axl (473 to end residues) cytoplasmic domain
[11] = Drug localization in nucleus of human A549 cells at 10 uM after 24 hrs by NanoSIMS analysis; format: ADME, subcellular; details: a549, 24 h
[12] = Drug localization in cytoplasm of human A549 cells at 10 uM after 24 hrs by NanoSIMS analysis; format: ADME, subcellular; details: a549, 24 h
[13] = Drug localization in nucleus of human MGHU3 cells at 10 uM after 24 hrs by NanoSIMS analysis; format: ADME, subcellular; details: mghu3, 24 h

Chain of Glycogen synthase kinase-3 beta (Homo sapiens) (P49841 whole entry, looked up, the tested form may be a part): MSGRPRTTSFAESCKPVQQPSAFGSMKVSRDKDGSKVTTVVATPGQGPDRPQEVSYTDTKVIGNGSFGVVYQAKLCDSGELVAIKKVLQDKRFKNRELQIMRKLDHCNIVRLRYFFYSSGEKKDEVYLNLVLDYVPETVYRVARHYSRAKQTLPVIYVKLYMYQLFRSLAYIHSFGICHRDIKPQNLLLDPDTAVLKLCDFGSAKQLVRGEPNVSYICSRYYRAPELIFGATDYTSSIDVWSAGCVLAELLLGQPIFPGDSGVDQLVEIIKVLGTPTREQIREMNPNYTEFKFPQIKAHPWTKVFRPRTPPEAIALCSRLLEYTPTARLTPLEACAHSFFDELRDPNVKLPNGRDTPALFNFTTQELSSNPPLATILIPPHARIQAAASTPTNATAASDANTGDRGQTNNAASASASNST

Row | Activity [1] [%] | Activity [2] [%] | Activity [3] [%] | Activity [4] [%] | solubility [5] | Activity [6] [%] | Activity [7] [%] | Activity [8] [%] | Ratio IC50 (Homo sapiens [9]) | Ratio IC50 (Homo sapiens [10]) | Drug uptake [11] | Drug uptake [12] | Drug uptake [13] | Structure (SMILES)
1 | 0 | 0 | 0 | 1 | Insoluble | 0 | 9 | 96.4 |  |  |  |  |  | O=C(Nc1ccc(Oc2c(Br)cnc3[nH]cnc23)c(F)c1)c1cccn(-c2ccc(F)cc2)c1=O
2 | 0 | 2 | 0 | 2 |  | 0 | 2 | 97 | 120 to 900 | 120 to 900 |  |  |  | O=C(Nc1ccc(Oc2ccnc3[nH]cnc23)c(F)c1)c1cccn(-c2ccc(F)cc2)c1=O
3 | 2 | 1 | 0 | 2 |  | 0 | 6 | 96.2 |  |  |  |  |  | Cc1cnc2[nH]cnc2c1Oc1ccc(NC(=O)c2cccn(-c3ccc(F)cc3)c2=O)cc1F
4 | 0 | 1 | 0 | 1 |  | 41 | 2 | 96.6 |  |  | Active | Active | Active | CC(C)c1nc2c(Oc3ccc(NC(=O)c4cccn(-c5ccc(F)cc5)c4=O)cc3F)ccnc2[nH]1
